Literature values, collected in US8530651B2, “Process for the preparation of anagrelide and analogues” (Shire LLC, priority 2008, dated 2013).
Where two headings read alike, the source gives them in different places.

Key:
[1] = humans; radiolabeled base
[2] = monkeys; radiolabeled base
[3] = solid

## O=C1CN2Cc3c(ccc(Cl)c3Cl)N=C2N1 [anagrelide base, 6,7-dichloro-1,5-dihydroimidazo[2,1-b]quinazolin-2 (3H)-one]
[1]
  absorption into blood plasma: complete absorption
[2]
  absorption into blood plasma: complete absorption
[3]
  aqueous solubility: low aqueous solubility
